Assay results taken from patent US8791132B2, “Compounds and methods for treatment of hypertension” (Medivation Technologies, Inc., priority 2011, dated 2014).
Several values for one entry are separate records, joined by “and”; a condition that tells them apart may be missing. Identical values can stand only once.

Columns and labels:
[1] = target: T1, human recombinant adrenergic α2A receptor (Homo sapiens, UniProt P08913); assay: Radioligand binding, adrenergic α2A ([3H]MK-912); details: for Percentage inhibition of ligand binding, Adrenergic α2A / inhibition at 0.1 µM: repeat assays, each datapoint shown; for inhibition at 0.1 µM: read-out: Percentage inhibition of ligand binding, Adrenergic α2A
T1 construct: expressed in transfected cells; host or cells: insect Sf9 cells
T1 sequence (P08913 1-465): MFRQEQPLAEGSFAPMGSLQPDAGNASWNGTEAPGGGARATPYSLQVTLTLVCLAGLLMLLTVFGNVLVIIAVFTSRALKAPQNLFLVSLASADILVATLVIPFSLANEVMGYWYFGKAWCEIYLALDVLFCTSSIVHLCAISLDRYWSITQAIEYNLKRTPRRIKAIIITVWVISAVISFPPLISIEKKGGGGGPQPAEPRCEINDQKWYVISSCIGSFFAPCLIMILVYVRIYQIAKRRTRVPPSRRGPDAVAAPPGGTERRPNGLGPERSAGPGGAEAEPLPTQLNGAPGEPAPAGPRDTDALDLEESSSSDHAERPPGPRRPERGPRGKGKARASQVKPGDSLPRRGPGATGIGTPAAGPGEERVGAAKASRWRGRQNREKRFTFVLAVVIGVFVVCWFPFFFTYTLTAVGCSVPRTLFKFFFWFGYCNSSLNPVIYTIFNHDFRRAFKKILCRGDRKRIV
Description: To evaluate in radioligand binding assays the activity of compounds of the invention, human recombinant adrenergic α2A receptor expressed in insect Sf9 cells (Uhlen, S. et al, J. Pharmacol. Exp. Ther. 271:1558, 1994) in a modified Tris-HCl buffer (50 mM Tris-HCl, pH 7.4, 12.5 mM MgCl2, 2 mM EDTA) was used. Compounds of invention were incubated with 1 nM [^3H]MK-912 for 60 min at 25° C. MK912 is (2S-trans)-1,3,4,5′,6,6′,7,12b-octahydro-1′,3′-dimethyl-spiro[2H-benzofuro[2,3-a]quinolizine-2,4′(1′H)-pyrimidin]-2′(3′H)-one hydrochloride. Non-specific binding was estimated in the presence of 10 μM WB-4101 (2-(2,6-Dimethoxyphenoxyethyl)aminomethyl-1,4-benzodioxane hydrochloride). Receptor proteins were filtered and washed, the filters were then counted to determine [^3H]MK-912 specifically bound. […] Compounds of the invention were tested in this biochemical assay and percent inhibition of specific binding was determined. Biochemical assay results are presented as the percent inhibition of specific binding in Table B1.

[2] = target: T2, human recombinant adrenergic α2B receptor (Homo sapiens, UniProt P18089); assay: Radioligand binding, adrenergic α2B ([3H]Rauwolscine); details: for Ki: read-out: Ki α2B
T2 construct: expressed in transfected cells; host or cells: CHO-K1
T2 sequence (P18089 1-450): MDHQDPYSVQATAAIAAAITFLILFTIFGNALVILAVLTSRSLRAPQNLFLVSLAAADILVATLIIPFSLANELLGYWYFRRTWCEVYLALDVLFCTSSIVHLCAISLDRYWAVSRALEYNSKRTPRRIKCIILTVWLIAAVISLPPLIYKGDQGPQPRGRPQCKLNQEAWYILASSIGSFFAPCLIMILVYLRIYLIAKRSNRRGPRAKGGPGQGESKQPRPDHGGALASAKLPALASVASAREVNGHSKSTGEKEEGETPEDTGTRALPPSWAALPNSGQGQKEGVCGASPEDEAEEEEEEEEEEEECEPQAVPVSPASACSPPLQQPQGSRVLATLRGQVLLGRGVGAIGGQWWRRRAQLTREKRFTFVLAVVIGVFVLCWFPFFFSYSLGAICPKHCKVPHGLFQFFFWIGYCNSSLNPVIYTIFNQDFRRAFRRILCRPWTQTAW
Description: To evaluate in radioligand binding assays the activity of compounds of the invention, human recombinant adrenergic α2B receptor expressed in Chinese hamster ovary (CHO) K1 cells (Uhlen, S. et al, Eur. J. Pharmacol. 343(1):93, 1998) in a modified Tris-HCl buffer (50 mM Tris-HCl, pH 7.4, 12.5 mM MgCl2, 1 mM EDTA, 0.2% BSA) was used. Compounds of the invention were incubated with 2.5 nM [3H]Rauwolscine for 60 min at 25° C. Non-specific binding was estimated in the presence of 10 μM Prazosin. Receptor proteins were filtered and washed, the filters were then counted to determine [3H]Rauwolscine specifically bound. […] Compounds of the invention were tested in this biochemical assay and percent inhibition of specific binding was determined. Biochemical assay results are presented as the percent inhibition of specific binding in Table B1.

[3] = target: T3, rat adrenergic α1B receptor (Rattus norvegicus, UniProt P15823); assay: Radioligand binding, adrenergic α1B ([3H]Prazosin); details: [3H]Prazosin; for Percentage inhibition of ligand binding, Adrenergic α1B / inhibition at 0.03 µM / inhibition at 0.1 µM: repeat assays, each datapoint shown; for inhibition at 0.03 µM: compound at 0.03 μM; for inhibition at 0.03 µM / inhibition at 0.1 µM: read-out: Percentage inhibition of ligand binding, Adrenergic α1B
T3 construct: rat adrenergic α1B receptor obtained from Wistar Rat liver; from tissue; host or cells: Wistar rat liver
T3 sequence (P15823 1-515): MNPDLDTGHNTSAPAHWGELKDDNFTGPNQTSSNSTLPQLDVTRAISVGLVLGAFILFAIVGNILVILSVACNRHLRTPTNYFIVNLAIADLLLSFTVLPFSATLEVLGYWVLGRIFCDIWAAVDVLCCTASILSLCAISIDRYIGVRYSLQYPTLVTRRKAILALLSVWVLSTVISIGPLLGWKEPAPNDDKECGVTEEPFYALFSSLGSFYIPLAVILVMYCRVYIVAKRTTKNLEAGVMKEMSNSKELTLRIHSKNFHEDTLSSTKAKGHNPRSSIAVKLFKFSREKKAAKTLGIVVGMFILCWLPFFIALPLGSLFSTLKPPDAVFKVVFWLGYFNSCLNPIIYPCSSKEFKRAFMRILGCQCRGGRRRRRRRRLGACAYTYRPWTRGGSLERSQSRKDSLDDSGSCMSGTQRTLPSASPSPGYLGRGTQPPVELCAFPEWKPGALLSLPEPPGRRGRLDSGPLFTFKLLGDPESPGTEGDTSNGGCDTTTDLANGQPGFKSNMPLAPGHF
Description: To evaluate in radioligand binding assays the activity of compounds of the invention, rat adrenergic α1B receptor obtained from Wistar Rat liver (Garcia-S'ainz, J. et al, Biochem. Biophys. Res. Commun. 186:760, 1992; Michel, A. et al, Br. J. Pharmacol. 98:883, 1989) in a modified Tris-HCl buffer (50 mM Tris-HCl buffer, pH 7.4, 0.5 mM EDTA) was used. Compounds of the invention were incubated with 0.25 nM [^3H]Prazosin for 60 min at 25° C. Non-specific binding was estimated in the presence of 10 μM phentolamine. Receptor proteins were filtered and washed, the filters were then counted to determine [^3H]Prazosin specifically bound. […] Compounds of the invention were tested in this biochemical assay and percent inhibition of specific binding was determined. Biochemical assay results are presented as the percent inhibition of specific binding in Table B1.

[4] = compound at 0.1 μM, [3H]MK-912, 0.1 µM
[5] = compound at 0.03 μM, [3H]Rauwolscine, repeat assays, each datapoint shown, 0.03 µM
[6] = compound at 0.1 μM, [3H]Rauwolscine, repeat assays, each datapoint shown, read-out: Percentage inhibition of ligand binding, Adrenergic α2B

Percentage inhibition of ligand binding, Adrenergic α2A [1, 4] [%]	Percentage inhibition of ligand binding, Adrenergic α2B [2, 5]	Percentage inhibition of ligand binding, Adrenergic α1B ([3]; compound at 0.1 μM, 0.1 µM) [%]	other results	SMILES
11	77%	61		Cc1ccc2c(c1)c1c(n2CC(O)c2ccncc2)CC2CCCCN2C1 (racemic) [75a]
5	43%	16		Cc1ccc2c(c1)c1c(n2CC(O)c2ccncc2)CC2CCCCN2C1 (racemic) [75b]
−2	11%	59		Cc1ccc2c(c1)c1c(n2CC(O)c2ccncc2)CC2CCCCN2C1 (racemic) [75c]
49	102%	26		Cc1ccc2c(c1)c1c(n2CC(O)c2ccncc2)CC2CCCCN2C1 (racemic) [75d]
			Percentage inhibition of ligand binding, Adrenergic α2A (0.1 μM) ([1]; compound at 0.1 μM, [3H]MK-912, repeat datapoints each shown, 0.1 µM): 29%; Percentage inhibition of ligand binding, Adrenergic α2B (0.03 μM) ([2]; compound at 0.03 μM, [3H]Rauwolscine, repeat datapoints each shown, 0.03 µM): 102%; Percentage inhibition of ligand binding, Adrenergic α1B (0.1 μM) ([3]; compound at 0.1 μM, repeat datapoints each shown, 0.1 µM): 57%	Cc1ccc2c(c1)c1c(n2CC(N=[N+]=[N-])c2ccncc2)CCN(C)C1 (racemic) [V-1b, 5-(2-azido-2-(pyridin-4-yl)ethyl)-2,3,4,5-tetrahydro-2,8-dimethyl-1H-pyrido[4,3-b]indole]
	26% and 30%		inhibition at 0.1 µM ([1]; compound at 0.1 μM, [3H]MK-912): 16%; inhibition at 0.1 µM [2, 6]: 62%; Ki [2]: 27.4 nM; inhibition at 0.03 µM [3]: 18%	Cc1ccc2c(c1)c1c(n2CC(O)c2ccncc2)CCN(C)C1 (single isomer, unassigned) [3a]
7	46%	58		CN1CCc2c(c3cc(Cl)ccc3n2CC(O)c2ccncc2)C1 (single isomer, unassigned) [4b]
0	29% and 38%		Percentage inhibition of ligand binding, Adrenergic α2B ([2]; compound at 0.1 μM, [3H]Rauwolscine, repeat assays, each datapoint shown, 0.1 µM): 57%; Ki [2]: 35 nM; inhibition at 0.1 µM ([3]; compound at 0.1 μM): 18%	Cc1ccc2c(c1)c1c(n2CC(C)(O)c2cccnc2)CCN(C)C1 (single isomer, unassigned) [5a, 1-(1,2,3,4-tetrahydro-2,8-dimethylpyrido[4,3-b]indol-5-yl)-2-(pyridin-3-yl)propan-2-ol]
1	59%	28		CN1CCc2c(c3cc(Cl)ccc3n2CC(O)c2cccnc2)C1 (single isomer, unassigned) [7a]
25	74%	37		CN1CCc2c(c3cc(Cl)ccc3n2CC(O)c2cccnc2)C1 (single isomer, unassigned) [7b]
12		63	Ki [1]: 2100 nM; inhibition at 0.1 µM ([1]; compound at 0.1 μM, [3H]MK-912): 8%; inhibition at 0.03 µM ([2]; compound at 0.03 μM, [3H]Rauwolscine, repeat assays, each datapoint shown, read-out: Percentage inhibition of ligand binding, Adrenergic α2B): 49%; inhibition at 0.1 µM [2, 6]: 78%; Ki [2]: 11.7 nM; inhibition at 0.03 µM [3]: 24%; inhibition at 0.1 µM ([3]; compound at 0.1 μM): 61%	Cc1ccc2c(c1)c1c(n2CC(O)c2ccncc2)CN(C)CC1 (single isomer, unassigned) [8b]
4	23%	11		Cc1ccc2c(c1)c1c(n2CC(O)c2cccnc2)CCNC1 (single isomer, unassigned) [9a, 2-(8-methyl-1,2,3,4-tetrahydro-pyrido[4,3-b]indol-5-yl)-1-pyridin-3-yl-ethanol]
10	50%	10		Cc1ccc2c(c1)c1c(n2CC(O)c2cccnc2)CCNC1 (single isomer, unassigned) [9b, 2-(8-methyl-1,2,3,4-tetrahydro-pyrido[4,3-b]indol-5-yl)-1-pyridin-3-yl-ethanol]
	34%		inhibition at 0.1 µM ([1]; compound at 0.1 μM, [3H]MK-912): 8%; inhibition at 0.1 µM ([3]; compound at 0.1 μM): 30%	OC(Cn1c2c(c3cc(Cl)ccc31)CNCC2)c1ccncc1 (single isomer, unassigned) [10a, 2-(8-chloro-1,2,3,4-tetrahydro-pyrido[4,3-b]indol-5-yl)-1-pyridin-4-yl-ethanol]
15	91%	28		OC(Cn1c2c(c3cc(Cl)ccc31)CNCC2)c1ccncc1 (single isomer, unassigned) [10b, 2-(8-chloro-1,2,3,4-tetrahydro-pyrido[4,3-b]indol-5-yl)-1-pyridin-4-yl-ethanol]
			inhibition at 0.1 µM ([1]; compound at 0.1 μM, [3H]MK-912): 23%; inhibition at 0.1 µM ([3]; compound at 0.1 μM): 58%	Cc1ccc2c(c1)c1c(n2CC(O)c2ccncc2)CN(C)CC1 (stereo not drawn) [compound 8]
